Where a name gives a salt, the structure may show the parent alone.
Key:
[1] = in vitro; settings: human
[2] = tested on: CPXV; test: microbe, parasite or virus in culture; type: cell-based; settings: Cowpox virus, Vero C1008, 24 h
[3] = tested on: CPXV; test: microbe, parasite or virus in culture; type: cell-based
[4] = tested on: VACV; test: microbe, parasite or virus in culture; type: cell-based; settings: Orthopoxvirus vaccinia, Huh-7, 24 h
[5] = tested on: VACV; test: microbe, parasite or virus in culture; type: cell-based; settings: Orthopoxvirus vaccinia, Vero C1008, 24 h
[6] = in vitro; settings: African green monkey

Compound: NC(=O)c1cn([C@@H]2O[C@H](CO)[C@@H](O)[C@H]2O)c2ncnc(N)c12 [Oya1, 4-amino-7-((2R,3R,4S,5R)-3,4-dihydroxy-5-(hydroxymethyl)tetrahydrofuran-2-yl)-7H-pyrrolo[2,3-d]pyrimidine-5-carboxamide]
- CC50 [1]: > 600 nM
- IC50 [2]: 200 ± 10 nM
- IC50 ([3]; Cowpox virus, Huh-7, 24 h): 220 ± 10 nM
- IC50 [4]: 50 ± 10 nM
- IC50 [5]: 20 ± 10 nM
- CC50 [6]: > 600 nM

Compound: NC(=O)c1cn([C@@H]2O[C@H](CO)[C@@H](O)[C@H]2O)c2ncnc(N)c12 [Oya2, 4-amino-7-((2R,3R,4S,5R)-3,4-dihydroxy-5-(hydroxymethyl)tetrahydrofuran-2-yl)-7H-pyrrolo[2,3-d]pyrimidine-5-carboxamide hydrochloride]
- IC50 ([3]; hydrochloride): 240 ± 10 nM

From US20230233591A1, “METHOD FOR TREATING […]” (priority 2020, published 2023)
